Laboratory results taken from patent publication US8394397B2, “Adhesive antineoplastic compositions” (Ed. Geistlich Soehne AG fuer Chemische Industrie, priority 2003, dated 2013).

Assays:
[1] = Taurolidine release from fibrin sealant matrix into PBS supernatant over 7 days; format: physicochemical; details: irrespective of initial taurolidine concentration, 37° C.
Description: Different concentrations of taurolidine were homogenously suspended in the two components of the fibrin sealant. The two components were then mixed in wells of a 24-multiwell plate to prepare matrixes with identical total volumes of 400 μl per well containing final taurolidine concentrations of 10, 20, 40 and 80 mg/ml. The resulting thickness of the matrix was 2 mm ±0.4 mm. In addition, matrices with volumes of 400 μl and 800 μl containing 10 mg/ml or 40 mg/ml of taurolidine were prepared to investigate the effect of matrix size on taurolidine release. […] Matrices of identical volume and thickness without taurolidine served as controls. Supernatants of 400 μl phosphate-buffered saline (PBS) were added to each well after solidification. The multiwell plates were incubated at 37° C. The supernatants were pipetted off at 24-hour intervals over a period of 7 days and replaced by identical amounts of fresh PBS.

[2] = Long-term release kinetics of taurolidine from fibrin sealant matrix over 14 days; format: physicochemical; details: for percentage of taurolidine released from the matrix: irrespective of loading concentrations
Description: The long-term release kinetics of taurolidine was investigated by homogenously suspending different concentrations of taurolidine in the two components of the fibrin sealant in such a way that final concentrations (mg/ml) of 10, 40 and 80 mg/ml were achieved per 400 μl of fresh PBS at 24-hour intervals over a period of 14 days. The supernatants from the wells containing identical taurolidine concentrations were pooled. The taurolidine concentrations in the supernatants were determined.

[3] = tested on: glial tumor cell lines LN18, LN229, U87MG, and ex vivo cells from a freshly isolated glioblastoma; assay: Crystal violet assay of tumor cells incubated with taurolidine released from the matrices; format: cell-based
Description: To determine whether the antineoplastic activity of taurolidine was affected by embedding in the matrix, the glial tumor cell lines LN18, LN229, U87MG, and ex vivo cells from a freshly isolated glioblastoma were incubated with taurolidine released from the matrices at different periods.
The LN18, LN229, and U87MG tumor cells and ex vivo cells from a glioblastoma were seeded in […] plastic cell culture flasks until a cell confluency of 80% was reached. The resulting cell suspensions were centrifuged at 1200 rpm for 5 min and then diluted to yield cell suspensions containing 5×10^4 cells per ml. Aliquots of 200 μl of the cell suspensions were pipetted into the wells of a 96-multiwell plate.
After 12 hours when the cells were adherent the medium was removed and replaced by fresh medium. The cells were incubated for 24 hours and the taurolidine solution released at different time intervals from the matrices loaded with different taurolidine concentrations. Tumor cells incubated with the same volume of supernatant from fibrin sealant matrix without taurolidine were used as negative controls. Identically treated cells to which Fas-ligand at a concentration of 25% was added served as positive controls.
After incubation for 24 hours, the supernatants were removed and 100 μl of crystal violet staining solution (0.5% crystal violet in 19.5% methanol and 80% distilled water) added. The solution was removed after 10 min and residual dye rinsed off with tap water. The plates were then left to air-dry for 12 hours followed by counting in a microplate counter at 540 nm.

[4] = cited from earlier work

percentage of total taurolidine released from the matrix ([1]; within 6 days): 75.2±6.64%
percentage of total taurolidine released from the matrix ([1]; within the first 2 days): 54.7±1.44%
percentage of taurolidine released from the matrix ([2]; after 10 days): 98.93%±0.33
percentage of taurolidine released from the matrix ([2]; after 14 days): 99.99%±0.02
period over which antineoplastically effective amounts of taurolidine were released ([2]; loading concentrations of 25 mg/ml or above): 14 days
taurolidine released on day 14 ([2]; loading concentrations of 50 mg/ml or higher, day 14): over 100 μg/ml
Compound: O=S1(=O)CCN(CN2CCS(=O)(=O)NC2)CN1 [Taurolidine, Bis-(1,1-dioxoperhydro-1,2,4-thiadiazinyl-4)methane]
proliferation of tumor cell lines and ex vivo glioblastoma cells ([3]; taurolidine released from matrices, 24 hours incubation): inhibited in an concentration-dependent manner
reduction of cell counts ([3]; taurolidine released on day 3, loading concentration 100 mg/ml): at least 60%
effect on tumor cell proliferation ([3]; taurolidine released on day 13 from TFM, initial loading concentration 10 mg/ml): no further effects on tumor cell proliferation
water soluble up to [4]: up to 2%
